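Briefly, cells in 96-well plates were exposed to five compound concentrations for 48 h, and endpoints were estimated by linear interpolation. GI50 marks 50% less growth. TGI is the concentration that stops growth completely.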
What follows are molecules tested on RPMI-8226 leukemia (assay: NCI tumour cell line growth inhibition, 48 h).
`Cc1cc(C)cc(Nc2cc(C)nc3nc(C(F)(F)F)nn23)c1` was tested, and the GI50 was > 100 µM and the TGI was > 100 µM.

The molecules below were run on OVCAR-3 ovarian (assay: NCI tumour cell line growth inhibition, 48 h).
With `O=C(c1ccccc1)c1c2ccccn2c2cccc[n+]12` the TGI was > 100 µM. `COc1cccc(NCc2nnc(Nc3ccc(Cl)cc3)c3ccccc23)c1` gave a GI50 of 1.65 µM and a TGI of 10 µM. With `Nc1nccc(-c2c(-c3ccc(F)cc3)ncn2CCCN2CCOCC2)n1` the GI50 was > 25 µM and the TGI was > 25 µM. For `Cc1cc(C)cc(Nc2cc(C)nc3nc(C(F)(F)F)nn23)c1`, the GI50 was > 100 µM and the TGI was > 100 µM.

The molecules below were run on SF-295 CNS (assay: NCI tumour cell line growth inhibition, 48 h).
For `O=C(c1ccccc1)c1c2ccccn2c2cccc[n+]12`, the TGI was > 100 µM. `COc1cccc(NCc2nnc(Nc3ccc(Cl)cc3)c3ccccc23)c1` was tested, and the GI50 was 1.94 µM and the TGI was 8.25 µM. `Nc1nccc(-c2c(-c3ccc(F)cc3)ncn2CCCN2CCOCC2)n1` was tested, and the GI50 was > 25 µM and the TGI was > 25 µM. With `Cc1cc(C)cc(Nc2cc(C)nc3nc(C(F)(F)F)nn23)c1` the GI50 was 32.3 µM and the TGI was > 100 µM.

What follows are molecules tested on HS 578T breast (assay: NCI tumour cell line growth inhibition, 48 h).
In the case of `O=C(c1ccccc1)c1c2ccccn2c2cccc[n+]12`, the TGI is reported as > 100 µM. `COc1cccc(NCc2nnc(Nc3ccc(Cl)cc3)c3ccccc23)c1` showed a GI50 of 2.9 µM and a TGI of 11.5 µM. `Nc1nccc(-c2c(-c3ccc(F)cc3)ncn2CCCN2CCOCC2)n1` was tested, and the GI50 was > 25 µM and the TGI was > 25 µM. With `Cc1cc(C)cc(Nc2cc(C)nc3nc(C(F)(F)F)nn23)c1` the GI50 was 34.9 µM and the TGI was > 100 µM.

The molecules below were run on SF-268 CNS (assay: NCI tumour cell line growth inhibition, 48 h).
With `O=C(c1ccccc1)c1c2ccccn2c2cccc[n+]12` the TGI was > 100 µM. `COc1cccc(NCc2nnc(Nc3ccc(Cl)cc3)c3ccccc23)c1` was tested, and the GI50 was 2.05 µM and the TGI was 10.5 µM. For `Nc1nccc(-c2c(-c3ccc(F)cc3)ncn2CCCN2CCOCC2)n1`, the GI50 was > 25 µM and the TGI was > 25 µM. With `Cc1cc(C)cc(Nc2cc(C)nc3nc(C(F)(F)F)nn23)c1` the GI50 was 44.4 µM and the TGI was > 100 µM.

Each molecule was assayed on NCI-H226 lung (assay: NCI tumour cell line growth inhibition, 48 h).
With `O=C(c1ccccc1)c1c2ccccn2c2cccc[n+]12` the TGI was > 100 µM. For `COc1cccc(NCc2nnc(Nc3ccc(Cl)cc3)c3ccccc23)c1`, the GI50 was 0.956 µM and the TGI was 6.82 µM. In the case of `Nc1nccc(-c2c(-c3ccc(F)cc3)ncn2CCCN2CCOCC2)n1`, the GI50 is reported as > 25 µM and the TGI is reported as > 25 µM. `Cc1cc(C)cc(Nc2cc(C)nc3nc(C(F)(F)F)nn23)c1` was tested, and the GI50 was > 100 µM and the TGI was > 100 µM.

The molecules below were run on DU-145 prostate (assay: NCI tumour cell line growth inhibition, 48 h).
For `O=C(c1ccccc1)c1c2ccccn2c2cccc[n+]12`, the TGI was > 100 µM. Work on `COc1cccc(NCc2nnc(Nc3ccc(Cl)cc3)c3ccccc23)c1` yielded a GI50 of 2.4 µM and a TGI of 6.52 µM. In the case of `Nc1nccc(-c2c(-c3ccc(F)cc3)ncn2CCCN2CCOCC2)n1`, the GI50 is reported as > 25 µM and the TGI is reported as > 25 µM. For `Cc1cc(C)cc(Nc2cc(C)nc3nc(C(F)(F)F)nn23)c1`, the GI50 was > 100 µM and the TGI was > 100 µM.

These molecules were tested on EKVX NSCLC (assay: NCI tumour cell line growth inhibition, 48 h).
With `O=C(c1ccccc1)c1c2ccccn2c2cccc[n+]12` the TGI was > 100 µM. Molecule `COc1cccc(NCc2nnc(Nc3ccc(Cl)cc3)c3ccccc23)c1` has a GI50 of 0.588 µM and a TGI of 6.4 µM. `Nc1nccc(-c2c(-c3ccc(F)cc3)ncn2CCCN2CCOCC2)n1` was tested, and the GI50 was > 25 µM and the TGI was > 25 µM.

What follows are molecules tested on HT29 colon (assay: NCI tumour cell line growth inhibition, 48 h).
`O=C(c1ccccc1)c1c2ccccn2c2cccc[n+]12` was tested, and the TGI was > 100 µM. With `COc1cccc(NCc2nnc(Nc3ccc(Cl)cc3)c3ccccc23)c1` the GI50 was 0.34 µM and the TGI was 3.62 µM. For `Nc1nccc(-c2c(-c3ccc(F)cc3)ncn2CCCN2CCOCC2)n1`, the GI50 was > 25 µM and the TGI was > 25 µM. For `Cc1cc(C)cc(Nc2cc(C)nc3nc(C(F)(F)F)nn23)c1`, the GI50 was > 100 µM and the TGI was > 100 µM.

What follows are molecules tested on RXF 393 renal (assay: NCI tumour cell line growth inhibition, 48 h).
With `O=C(c1ccccc1)c1c2ccccn2c2cccc[n+]12` the TGI was > 100 µM. `COc1cccc(NCc2nnc(Nc3ccc(Cl)cc3)c3ccccc23)c1` was tested, and the GI50 was 2.16 µM and the TGI was 6.11 µM. `Nc1nccc(-c2c(-c3ccc(F)cc3)ncn2CCCN2CCOCC2)n1` was tested, and the GI50 was > 17 µM and the TGI was > 25 µM. `Cc1cc(C)cc(Nc2cc(C)nc3nc(C(F)(F)F)nn23)c1` was tested, and the GI50 was 24.3 µM and the TGI was > 100 µM.

What follows are molecules tested on SN12C renal (assay: NCI tumour cell line growth inhibition, 48 h).
`COc1cccc(NCc2nnc(Nc3ccc(Cl)cc3)c3ccccc23)c1` was tested, and the GI50 was 2.52 µM and the TGI was 10.7 µM. In the case of `Nc1nccc(-c2c(-c3ccc(F)cc3)ncn2CCCN2CCOCC2)n1`, the GI50 is reported as > 25 µM and the TGI is reported as > 25 µM. In the case of `Cc1cc(C)cc(Nc2cc(C)nc3nc(C(F)(F)F)nn23)c1`, the GI50 is reported as > 100 µM and the TGI is reported as > 100 µM.

Each molecule was assayed on COLO 205 colon (assay: NCI tumour cell line growth inhibition, 48 h).
In the case of `O=C(c1ccccc1)c1c2ccccn2c2cccc[n+]12`, the TGI is reported as > 100 µM. `COc1cccc(NCc2nnc(Nc3ccc(Cl)cc3)c3ccccc23)c1` gave a GI50 of 0.492 µM and a TGI of 4.01 µM. In the case of `Nc1nccc(-c2c(-c3ccc(F)cc3)ncn2CCCN2CCOCC2)n1`, the GI50 is reported as > 25 µM and the TGI is reported as > 25 µM. In the case of `Cc1cc(C)cc(Nc2cc(C)nc3nc(C(F)(F)F)nn23)c1`, the GI50 is reported as > 100 µM and the TGI is reported as > 100 µM.

What follows are molecules tested on SK-OV-3 ovarian (assay: NCI tumour cell line growth inhibition, 48 h).
For `O=C(c1ccccc1)c1c2ccccn2c2cccc[n+]12`, the TGI was > 100 µM. For `COc1cccc(NCc2nnc(Nc3ccc(Cl)cc3)c3ccccc23)c1`, the GI50 was 1.13 µM and the TGI was 8.19 µM. In the case of `Nc1nccc(-c2c(-c3ccc(F)cc3)ncn2CCCN2CCOCC2)n1`, the GI50 is reported as > 25 µM and the TGI is reported as > 25 µM. For `Cc1cc(C)cc(Nc2cc(C)nc3nc(C(F)(F)F)nn23)c1`, the GI50 was 81.5 µM and the TGI was > 100 µM.

Each molecule was assayed on HCC-2998 colon (assay: NCI tumour cell line growth inhibition, 48 h).
In the case of `O=C(c1ccccc1)c1c2ccccn2c2cccc[n+]12`, the TGI is reported as > 100 µM. `COc1cccc(NCc2nnc(Nc3ccc(Cl)cc3)c3ccccc23)c1` showed a GI50 of 3.44 µM and a TGI of 8.79 µM. For `Nc1nccc(-c2c(-c3ccc(F)cc3)ncn2CCCN2CCOCC2)n1`, the GI50 was > 25 µM and the TGI was > 25 µM. `Cc1cc(C)cc(Nc2cc(C)nc3nc(C(F)(F)F)nn23)c1` was tested, and the GI50 was > 100 µM and the TGI was > 100 µM.

These molecules were tested on OVCAR-5 ovarian (assay: NCI tumour cell line growth inhibition, 48 h).
`O=C(c1ccccc1)c1c2ccccn2c2cccc[n+]12` was tested, and the TGI was > 100 µM. Molecule `COc1cccc(NCc2nnc(Nc3ccc(Cl)cc3)c3ccccc23)c1` has a GI50 of 3.38 µM and a TGI of 11.8 µM. With `Nc1nccc(-c2c(-c3ccc(F)cc3)ncn2CCCN2CCOCC2)n1` the GI50 was > 25 µM and the TGI was > 25 µM. With `Cc1cc(C)cc(Nc2cc(C)nc3nc(C(F)(F)F)nn23)c1` the GI50 was > 100 µM and the TGI was > 100 µM.

From PubChem BioAssay (NCI)
